The target of this experiment is HIV protease (Human immunodeficiency virus type 1 group M subtype B, UniProt P04585). Kind of experiment: Assay for inhibition of microbial expressed viral protease (peptide substrate cleavage, HPLC readout). Format: biochemical. The conditions noted are these: protease expressed in Eschericia coli; peptide substrate Val-Ser-Gln-Asn-(betanapthyl)Ala-Pro-Ile-Val 0.5 mg/mL; 50 mM Na acetate, pH 5.5, 30°C, 1 hour; read-out: IC₅₀. As to the method: Assay for Inhibition of Microbial Expressed Viral Protease
Inhibition studies of the reaction of the protease expressed in Eschericia coli with a peptide substrate [Val-Ser-Gln-Asn-(betanapthyl)Ala-Pro-Ile-Val, 0.5 mg/mL at the time the reaction is initiated] were in 50 mM Na acetate, pH 5.5, at 30°C for 1 hour. Various concentrations of inhibitor in 1.0 ul DMAO were added to 25 ul of the peptide solution in water. The reaction is initiated by the addition of 15 ul of 0.33 nM protease (0.11 ng) in a solution of 0.133 M Na acetate pH 5.5 and 0.26% bovine serum albumin. The reaction was quenched with 160 ul of 5% phosphoric acid. Products of the reaction were separated by HPLC (VYDAC wide pore 5 cm C-18 reverse phase, acetonitrile gradient, 0.1% phosphoric acid). The extent of inhibition of the reaction was determined from the peak heights of the products.

As for `O=C(N[C@H]1c2ccccc2C[C@H]1O)[C@H](Cc1ccccc1)CC(O)C[C@@H](Cc1ccccc1)C(=O)N[C@H]1c2ccccc2C[C@H]1O` [Example 1, N,N-bis-(2(R)-hydroxy-1(S)-indanyl)-2, 6(R,R)diphenylmethyl-4-hydroxy-1,7-heptanediamide], the IC50 was roughly 0.7 nM.

The values are drawn from EP0480714A2, “HIV protease inhibitors having symmetrical structure” (MERCK & CO. INC., priority 1990, dated 1992).
